In US11370773B1, “Inhibiting human integrin (alpha-4) (beta-7)” (Morphic Therapeutic, Inc., priority 2019, dated 2022):

Columns and labels:
[1] = target: T1, integrin α4β7 (Homo sapiens, UniProt P13612+P26010); experiment: Fluorescence Polarization (FP) assay for α4β7 binding, competition with fluorescein-labeled peptide; conditions: 6.5 nM integrin α4β7, 3 nM fluorescein-labeled peptide, 2 mM MnCl2; read-out: FP Assay (Example 5) IC50
T1 sequence (P13612 34-977 limits assumed): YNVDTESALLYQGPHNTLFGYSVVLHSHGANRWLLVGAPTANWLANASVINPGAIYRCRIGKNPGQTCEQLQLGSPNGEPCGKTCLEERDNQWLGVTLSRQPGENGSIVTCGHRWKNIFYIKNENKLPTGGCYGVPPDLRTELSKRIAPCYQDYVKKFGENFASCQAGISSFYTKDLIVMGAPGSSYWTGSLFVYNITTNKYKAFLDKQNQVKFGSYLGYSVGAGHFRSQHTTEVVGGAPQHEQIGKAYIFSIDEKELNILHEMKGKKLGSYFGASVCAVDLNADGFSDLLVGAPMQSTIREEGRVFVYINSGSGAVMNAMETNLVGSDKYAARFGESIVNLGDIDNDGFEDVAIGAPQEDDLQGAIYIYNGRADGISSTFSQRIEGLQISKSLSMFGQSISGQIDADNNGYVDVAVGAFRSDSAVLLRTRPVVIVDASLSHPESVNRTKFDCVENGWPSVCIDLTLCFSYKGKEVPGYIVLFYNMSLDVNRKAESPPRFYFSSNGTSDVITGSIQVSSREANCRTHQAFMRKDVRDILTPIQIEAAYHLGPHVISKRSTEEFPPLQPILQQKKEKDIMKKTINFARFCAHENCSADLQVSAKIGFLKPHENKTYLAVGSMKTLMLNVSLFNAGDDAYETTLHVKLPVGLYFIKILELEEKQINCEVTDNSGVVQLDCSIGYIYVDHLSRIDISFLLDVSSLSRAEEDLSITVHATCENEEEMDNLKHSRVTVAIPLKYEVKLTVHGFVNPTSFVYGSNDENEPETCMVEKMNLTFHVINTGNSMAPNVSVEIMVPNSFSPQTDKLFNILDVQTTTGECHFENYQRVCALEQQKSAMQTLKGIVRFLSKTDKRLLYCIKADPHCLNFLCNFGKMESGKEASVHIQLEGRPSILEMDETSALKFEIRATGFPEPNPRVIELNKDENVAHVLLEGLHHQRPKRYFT
T1 sequence (P26010 20-723 limits assumed): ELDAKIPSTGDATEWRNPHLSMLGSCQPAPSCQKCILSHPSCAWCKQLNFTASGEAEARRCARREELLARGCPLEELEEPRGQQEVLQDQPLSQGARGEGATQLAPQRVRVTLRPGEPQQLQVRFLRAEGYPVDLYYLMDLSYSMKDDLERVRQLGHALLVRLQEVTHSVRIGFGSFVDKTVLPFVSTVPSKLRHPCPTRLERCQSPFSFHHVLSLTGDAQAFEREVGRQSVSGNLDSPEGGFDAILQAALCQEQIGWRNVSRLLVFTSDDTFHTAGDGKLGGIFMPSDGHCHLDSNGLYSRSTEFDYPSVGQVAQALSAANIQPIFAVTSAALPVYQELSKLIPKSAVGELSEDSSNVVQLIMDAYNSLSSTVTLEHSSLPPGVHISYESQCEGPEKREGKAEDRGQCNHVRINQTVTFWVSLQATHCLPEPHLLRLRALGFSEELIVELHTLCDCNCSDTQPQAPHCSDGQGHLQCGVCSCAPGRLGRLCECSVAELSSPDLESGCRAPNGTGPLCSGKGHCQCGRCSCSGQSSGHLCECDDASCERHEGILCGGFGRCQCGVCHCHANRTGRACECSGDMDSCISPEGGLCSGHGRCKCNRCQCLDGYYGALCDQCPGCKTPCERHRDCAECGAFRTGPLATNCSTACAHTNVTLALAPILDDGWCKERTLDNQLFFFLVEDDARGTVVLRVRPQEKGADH
Experimental: (§1) Three in vitro assays were used to examine the α4β7 mechanistic process used by cells: 1) ligand:receptor affinity, 2) the avidity of those interactions on a cell's surface, and 3) how those interactions fare under an imposing force. In Example 5, a Fluorescence Polarization (FP) assay is used to measure compound activity through binding competition with the fluorescein-labeled peptide. In Example 6, the potency of compounds against α4β7 is measured in the cell-based ligand binding assay (LBA), using RPMI 8866 cells incubated with the compound samples in competition with soluble MAdCAM-1 ligand. In Example 7, activity of compounds is evaluated in a cell adhesion assay that mechanistically tests what occurs in vivo when trafficking cells utilize α4β7 to adhere to MAdCAM-1 expressing HEVs of the gut during the extravasation process. In the cell adhesion assay of Example 7, a MAdCAM1-(Fc) is coated on plastic, and α4β7 expressing cells (RPMI-8866) are allowed to adhere to the coated surface in the presence of the test compounds. Next, the force of washing with buffer is applied to cells thereby testing the strength of that adhesion. Unattached cells are removed and the remaining adherent cells are quantified.
Fluorescence Polarization (FP) assays were used to measure compound activity through binding competition with the fluorescein-labeled peptide […]{Lys(FITC)}. In the assay, 6.5 nM of integrin α4β7 was incubated with the test compound in 2 mM manganese chloride, 0.1 mM calcium chloride, 20 mM HEPES buffer at pH 7.3, 150 mM sodium chloride, 0.01% Triton X-100, 2% DMSO, and 3 nM of the fluorescein-labeled peptide. Running the assays in 384-well plates, the integrin protein was pre-incubated with the test compounds for 15 minutes at 22° C. before the fluorescein-labeled peptide was added. After the fluorescein-labeled peptide was added, the assay was incubated at 22° C. for 1 hour and fluorescence polarization was measured. IC50 values were determined by non-linear regression, four-parameter curve fitting.

[2] = target: T2, α4β7 (Homo sapiens, UniProt P13612+P26010); experiment: Cell adhesion assay, RPMI8866 cells adhering to MAdCAM coated plates; assay type: cell-based; conditions: RPMI8866 cells on recombinant human MAdCAM coated plates; read-out: CA Assay (Example 7) IC50
T2 construct: α4β7 expressing cells (RPMI-8866); endogenous in cells; host or cells: RPMI 8866
T2 sequence (P13612 34-1032): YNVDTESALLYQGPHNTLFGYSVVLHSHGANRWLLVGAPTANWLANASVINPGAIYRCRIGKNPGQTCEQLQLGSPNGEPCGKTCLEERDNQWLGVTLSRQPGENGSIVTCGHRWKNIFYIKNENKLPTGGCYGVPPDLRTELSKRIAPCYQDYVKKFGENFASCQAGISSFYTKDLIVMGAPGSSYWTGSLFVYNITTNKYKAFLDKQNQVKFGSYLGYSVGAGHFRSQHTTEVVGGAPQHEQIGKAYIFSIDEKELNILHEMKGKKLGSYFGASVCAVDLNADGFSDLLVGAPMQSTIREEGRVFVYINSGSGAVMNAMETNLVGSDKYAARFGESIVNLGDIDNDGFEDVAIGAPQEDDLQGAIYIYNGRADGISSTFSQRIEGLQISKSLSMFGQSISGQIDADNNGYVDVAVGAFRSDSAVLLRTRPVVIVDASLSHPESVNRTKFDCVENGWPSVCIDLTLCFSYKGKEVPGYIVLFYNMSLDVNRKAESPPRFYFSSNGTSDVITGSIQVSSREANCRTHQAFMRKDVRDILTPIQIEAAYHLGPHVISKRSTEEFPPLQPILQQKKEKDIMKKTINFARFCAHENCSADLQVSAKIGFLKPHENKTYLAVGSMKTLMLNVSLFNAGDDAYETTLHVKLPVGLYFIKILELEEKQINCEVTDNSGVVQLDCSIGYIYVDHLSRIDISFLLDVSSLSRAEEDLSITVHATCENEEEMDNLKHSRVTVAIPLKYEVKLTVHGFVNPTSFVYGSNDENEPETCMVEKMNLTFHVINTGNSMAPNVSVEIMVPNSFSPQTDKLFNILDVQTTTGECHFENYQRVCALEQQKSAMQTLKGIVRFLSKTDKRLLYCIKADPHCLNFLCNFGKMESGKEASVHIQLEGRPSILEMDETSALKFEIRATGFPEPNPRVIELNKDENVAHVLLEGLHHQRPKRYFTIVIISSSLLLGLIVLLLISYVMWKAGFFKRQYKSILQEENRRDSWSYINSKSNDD
T2 sequence (P26010 20-798): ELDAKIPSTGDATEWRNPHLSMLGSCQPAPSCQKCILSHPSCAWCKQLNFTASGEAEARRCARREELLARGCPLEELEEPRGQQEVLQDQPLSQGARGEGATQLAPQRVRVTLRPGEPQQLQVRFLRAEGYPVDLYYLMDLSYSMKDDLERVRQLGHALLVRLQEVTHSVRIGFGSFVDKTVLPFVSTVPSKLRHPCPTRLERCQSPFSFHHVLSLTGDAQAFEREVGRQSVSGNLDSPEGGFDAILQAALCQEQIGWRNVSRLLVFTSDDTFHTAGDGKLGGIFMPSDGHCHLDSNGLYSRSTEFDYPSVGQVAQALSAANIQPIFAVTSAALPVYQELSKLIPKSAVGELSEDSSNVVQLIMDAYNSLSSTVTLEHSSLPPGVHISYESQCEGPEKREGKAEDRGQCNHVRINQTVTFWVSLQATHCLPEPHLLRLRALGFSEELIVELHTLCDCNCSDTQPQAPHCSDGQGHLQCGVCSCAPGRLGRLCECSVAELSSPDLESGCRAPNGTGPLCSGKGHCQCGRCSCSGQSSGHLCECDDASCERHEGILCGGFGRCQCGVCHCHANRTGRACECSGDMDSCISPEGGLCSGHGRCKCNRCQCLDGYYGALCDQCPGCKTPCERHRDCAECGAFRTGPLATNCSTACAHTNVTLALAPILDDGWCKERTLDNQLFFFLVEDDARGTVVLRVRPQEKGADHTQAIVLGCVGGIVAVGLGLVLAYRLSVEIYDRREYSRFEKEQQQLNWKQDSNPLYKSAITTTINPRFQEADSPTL
Experimental: as §1
Example 7 describes a cell adhesion assay.
To each well of a 96 well plate, 100 ug of recombinant human MAdCAM in 100 ul PBS is added and incubated overnight at 4° C. After incubation MAdCAM is removed by aspiration and 200 ul of PBS+1% BSA is added to block the plate for 2 hours at 37° C. and 5% CO2. During this incubation dilution curves of compound are made in 100% DMSO in 96 well V bottom plates. 1.75 ul of diluted compounds are then transferred to a new 96 well U bottom plate containing 20 ul of assay media (phosphate free DMEM+25 mM HEPES+1% BSA). To this an additional 155 ul of assay media is added with mixing by pipetting up and down. This mixture is allowed to incubate for 15 minutes at 37° C. and 5% CO2. After incubation 175 ul of assay media containing 2e6/mL RPMI8866 cells is added to compound containing wells without mixing and plate is allowed to incubate for another 15 minutes at 37° C. and 5% CO2. During this incubation MAdCAM coated plates are removed from incubator and washed twice with 200 ul PBS+0.1% BSA. […] This plate is then incubated at 37° C. and 5% CO2 for 1 hour. After incubation plates are washed twice with 200 ul and once with 50 ul of phenol free RPMI+1% BSA. A final 50 ul of phenol free RPMI+1% BSA is added to wells after last wash. Next 50 ul of Promega cell titer glow is added to the wells. Plate is incubated on shaker for 2 minutes at 200 RPM followed by another 8 minutes off shaker before having the luminescence read on a Biotek Citation 5 plate reader. Raw data is converted to % inhibition compared to bottom of curve and analyzed using a 4-parameter non linear curve in Prism to determine IC50 and IC90.

Row | Structure (SMILES) | IC50 [1] | IC50 [2]
1 | Cc1cc(C)c(-c2cc(C)c(F)c([C@H](CC(=O)O)NC(=O)C(CC(C)C)n3cc(CCN(C)C)c(C(F)(F)F)cc3=O)c2)c(C)c1 (single isomer, unassigned) [AC-P2] | ≤ 10 nM | –
2 | Cc1cc(-c2c(C)cccc2C)cc([C@H](CC(=O)O)NC(=O)[C@H](CC(C)C)n2cc(CCN3CC[C@@H](F)C3)cc(F)c2=O)c1F (single isomer, unassigned) [AU-P2] | – | < 5 nM
